By AUC(0-t) is commonly meant exposure summed from dosing to a finite time, without extrapolation to infinity. A word on the Cmax: it is the maximum level reached in the sampled fluid or tissue. The term IC50 denotes the concentration at which inhibition is half-maximal.

Values joined by “and” are separate entries in the source; they are usually repeats but may differ in a detail not shown here. Equal values may be shown once. Read-outs that look alike come from different tables or passages of the source.

Consider eight compounds from patent US11091462B2, “(Hetero)arylamide compound for inhibiting protein kinase activity” (Shenzhen TargetRx, Inc., priority 2017, dated 2021).

Series [1] can be described thus: Pharmacokinetic experiment in rats. Format: in vivo, Sprague-Dawley rats. Also noted: Cl—pred: unit not given here. Particulars: for AUC(0-t) / Vd / Cmax / MRT inf: male, Sprague-Dawley, rat, plasma; for Vd: read-out: Vz—pred; for F: oral 20 mg/kg vs IV 2 mg/kg; for MRT inf: read-out: MRTINF—pred. The method, then:
9 Male Sprague-Dawley rats, 7-8 weeks old, weighted 210 g, divided into 3 groups with 3 rats in each group, were intravenously (2 mg/kg) or orally (20 mg/kg) given a single dose of compound, and differences in pharmacokinetics of the rats were compared.
Rats were fed with a standard diet and water. Fasting began 16 hours before the test. The drugs were dissolved in PEG400 and dimethyl sulfoxide. Blood was collected from the eyelids at a time point of 0.083 hour, 0.25 hour, 0.5 hour, 1 hour, 2 hours, 4 hours, 6 hours, 8 hours, 12 hours, and 24 hours after administration.
Rats were briefly anesthetized after inhalation of ether, and 300 μL of blood samples were collected from the eyelids to test tubes. There was 30 μL of 1% heparin salt solution in the test tube. The tubes were dried overnight at 60° C. before use. After the blood sample was collected at the last time point, rats were anesthetized with ether and sacrificed.
Immediately after the collection, blood samples were sufficiently mixed by gently inverting the tube at least 5 times, and were placed on ice. Blood samples were centrifuged at 5000 rpm for 5 minutes at 4° C. to separate plasma from red blood cells. 100 μL of the plasma was pipetted into a clean plastic centrifuge tube, marking the name of the compound and collecting time. Plasma was stored at −80° C. prior to analysis. The concentration of the compounds disclosed herein in plasma was determined by LC-MS/MS. Pharmacokinetic parameters were calculated based on drug concentrations in plasma of each animal at different time points.

The next series has as its system Ba/F3 parent cells. The series is described as follows: Cytotoxicity experiment, Ba/F3 parent cells (CellTiter-Glo). Particulars: Mus musculus, BaF3, 72 h; Ba/F3 parent cells with 8 ng/ml IL-3, 3 days. It counts as cell-based. The method, then:
(§1) Example 13: Cytotoxicity Experiment
(§2) The inhibitory effect of the Example compounds on the activity of Ba/F3 parent cell, Ba/F3 Bcr-Abl^T315I cell was examined.
(§3) 1. Preparation of cell plate: Ba/F3 parental cells, Ba/F3 Bcr-Abl^T315I cells were seeded in 96-well plates, and 8 ng/ml IL-3 was added to Ba/F3 parental cells. The cell plates were placed in carbon dioxide culture and incubated overnight.
(§4) 2. Preparation of test compounds: The test compounds were dissolved in DMSO and subjected to a 3.16-fold gradient dilution in triplicate, 9 concentrations were obtained, starting from the concentration of 10 μM.
(§5) 3. Treatment of Cells with compounds: Compounds at various concentrations were transferred to cell plates. The cell plates were incubated in a carbon dioxide incubator for 3 days.
(§6) 4. Detection: CellTiter-Glo4 reagent was added to the cell plates, which were incubated for 30 minutes at room temperature to stabilize the luminescence signal. Readings were performed using a PerkinElmer Envision multi-label analyzer.
(In general: In ATP-based viability assays light output follows the ATP content of the culture.)

Series [2] concerns the target T1, Ba/F3 Bcr-Abl^T315I cells (Homo sapiens, UniProt P00519, T315I, cells depend on it).
T1 construct: Ba/F3 Bcr-Abl1^T315I IC50; other: Ba/F3 Bcr-Abl T315I cells, 3 days; fused on or other part: P11274 (Breakpoint cluster region protein)
Nature of the series: Cytotoxicity experiment, Ba/F3 Bcr-Abl T315I cells (CellTiter-Glo). Format: cell-based. Particulars: 3 days, read-out: Ba/F3 Bcr-Abl1^T315I IC50. The method, then: as §1, §2, §3, §4, §5, §6

Series [3] is classed as in vivo. Conditions: 15 mg/kg twice a day.
Series [4] has as its system BA/F3 (BCR-ABL^T315I) cells. The series is described as follows: Pharmacodynamic evaluation in BA/F3 (BCR-ABL T315I) subcutaneous tumor model. It counts as in vivo, NOD/SCID mice. Particulars: 15 mg/kg twice a day. The method, then:
Feeding environment: SPF level.
Each NOD/SCID mouse was subcutaneously inoculated with 5×10^6 BA/F3 (BCR-ABL^T315I) cells in the right dorsal area, wherein the cells were resuspended in PBS (0.1 ml/mouse), to establish a subcutaneous tumor model. […] The efficacy was evaluated according to the relative tumor growth inhibition rate (TGI), and the safety evaluation was performed according to the body weight changes and deaths of the animals.
The experimental protocols for animal experiment disclosed herein were reviewed and approved by the CrownBio IACUC committee. During the experiment, the procedures of the animal experiment were carried out according to the requirements of AAALAC. After tumor inoculation, the effects of tumor growth and treatment on normal animal behavior were routinely monitored, including experimental animal activity, feeding and drinking, weight gain or loss, eye, hair and other abnormalities. Abnormal clinical symptoms observed during the experiment were recorded in the raw data. Mice body weight and tumor size were measured and recorded three times per week during the experiment. The mice were weighed before each administration and administered according to the weight thereof.
Relative tumor growth inhibition rate TGI (%):
T/C % is the relative tumor proliferation rate, that is, the percentage of tumor volume or tumor weight of the treatment group and the control group at a certain time point. T and C are the relative tumor volume (RTV) or tumor weight (TW) of the treatment group and the control group at a specific time point, respectively.
All experimental results were expressed as mean±standard error (x±s), and the significant difference of the tumor volume at 12 days after grouping between the control group and each treatment group was evaluated with one-way ANOVA, and significant difference of the tumor volume between the control group and each treatment group or between each treatment group was evaluated using Games-Howell (heterogeneity of variance), p<0.05 was considered to be significant.

Regarding `O=C(Nc1ccc(OC(F)(F)Cl)cc1)c1cnc(N2CC[C@@H](O)C2)c(-c2ccn[nH]2)c1` [ABL-001, (R)—N-(4-(chlorodifluoromethoxy)phenyl)-6-(3-hydroxypyrrolidin-1-yl)-5-(1H-pyrazol-5-yl)nicotinamide, reference compound], in series [1] (PO 20 mg/kg single dose), the “Vz—pred” value worked out at 5.14 L/kg, the AUC(0-t) is 13700 ng·h/mL and the Cmax is 1770 ng/mL. In addition, in series [1] (IV 2 mg/kg single dose), the AUC(0-t) is 6900 ng·h/mL and the Vd was found to be 0.54 L/kg. The F in series [1] came to 19.86%.

In the case of `O=C(Nc1ccc(OC(F)(F)Cl)cc1)c1cnc(N2CC[C@@H](O)C2)c(-c2cnccn2)c1` [Example 1, (R)-6-(3-hydroxypyrrolidin-1-yl)-5-(pyrazin-2-yl)-N-(4-(chlorodifluoromethoxy)phenyl)nicotinamide], the IC50 in the series with Ba/F3 parent cells was over 1000 nM. For the same compound, the GI50 in series [2] is at most 100 nM. Moreover, in series [1] (IV 2 mg/kg single dose), the “Cl—pred” value is 0.35, the AUC(0-t) was 5700 ng·h/mL, the Cmax came out at 4820 ng/mL and the MRT inf was determined as 1.37 h. The Vd in series [1] (IV 2 mg/kg single dose) is 0.7 L/kg. In addition, in series [1] (PO 20 mg/kg single dose), the “Cl—pred” value is 0.54, the “Vz—pred” value was 1.68 L/kg, the AUC(0-t) was found to be 38000 ng·h/mL and the Cmax is 4330 ng/mL. Further, the MRT inf in series [1] (PO 20 mg/kg single dose) amounted to 5.43 h. For the same compound, the F in series [1] is on record as 66.68%.

Take `O=C(Nc1ccc(OC(F)(F)Cl)cc1)c1cnc(N2CC[C@@H](O)C2)c(-c2cccnn2)c1` [Example 2, (R)-6-(3-hydroxypyrrolidin-1-yl)-5-(pyridazine-3-yl)-N-(4-(chlorodifluoromethoxy)phenyl)nicotinamide]: in the series with Ba/F3 parent cells, the IC50 is over 1000 nM. The GI50 in series [2] is 100 to 500 nM.

`O=C(Nc1ccc(OC(F)(F)Cl)cc1)c1cnc(N2CC[C@@H](O)C2)c(-c2ccnnc2)c1` [Example 3, (R)-6-(3-hydroxypyrrolidin-1-yl)-5-(pyridazine-4-yl)-N-(4-(chlorodifluoromethoxy)phenyl)nicotinamide]: the IC50 in the series with Ba/F3 parent cells was over 1000 nM. For the same compound, the GI50 in series [2] lay within 500 to 1000 nM.

On to `Nc1ncc(-c2cc(C(=O)Nc3ccc(OC(F)(F)Cl)cc3)cnc2N2CC[C@@H](O)C2)nn1` [Example 4, (R)-6-(3-hydroxypyrrolidin-1-yl)-5-(3-amino-1,2,4-triazin-6-yl)-N-(4-(chlorodifluoromethoxy)phenyl)nicotinamide], for which the IC50 in the series with Ba/F3 parent cells was over 1000 nM. Also, the GI50 in series [2] lay in the range of 100 to 500 nM.

As to `O=C(Nc1ccc(OC(F)(F)Cl)cc1)c1cnc(N2CC[C@@H](O)C2)c(-c2cncnn2)c1` [Example 5, (R)-6-(3-hydroxypyrrolidin-1-yl)-5-(1,2,4-triazin-6-yl)-N-(4-(chlorodifluoromethoxy)phenyl)nicotinamide], the IC50 in the series on Ba/F3 parent cells is over 1000 nM. Further, in series [2], the GI50 was 100 to 500 nM.

For `O=C(Nc1ccc(OC(F)(F)Cl)cc1)c1cnc(N2CC[C@@H](O)C2)c(-c2nccnn2)c1` [Example 6, (R)-6-(3-hydroxypyrrolidin-1-yl)-5-(1,2,4-triazin-3-yl)-N-(4-(chlorodifluoromethoxy)phenyl)nicotinamide], the IC50 with Ba/F3 parent cells is over 1000 nM. In addition, the GI50 in series [2] was over 1000 nM.

Regarding `O=C(Nc1ccc(OC(F)(F)Cl)cc1)c1cnc(N2CC[C@@H](F)C2)c(-c2cnccn2)c1` [Example 7, (R)-6-(3-fluoropyrrolidin-1-yl)-5-(pyrazin-2-yl)-N-(4-(chlorodifluoromethoxy)phenyl)nicotinamide], the “average body weight of the mice increased by” value in series [3] (at day 22 after grouping) is 1.3%. Moreover, the “decrease in the body weight of mice during the experiment” value in series [3] (during the experiment) is on record as “no mouse in the Example 7 15 mg/kg group had a decrease in the body weight”. Further, in the series on Ba/F3 parent cells, the IC50 was over 1000 nM. Besides, the “Tumor volume (x ± S)” value in series [4] (at day 2 after grouping) was 175 ± 17 mm^3; in series [4] (at day 5 after grouping), 237 ± 27 mm^3; in series [4] (at day 8 after grouping), 432 ± 24 mm^3; in series [4] (at day 10 after grouping), 590 ± 51 mm^3; in series [4] (at day 12 after grouping), 790 ± 64 mm^3; in series [4] (at day 15 after grouping), 1145 mm^3 and 1145 ± 116 mm^3. In addition, the “Tumor volume (x ± S)” value in series [4] (at day 17 after grouping) stood at 1532 ± 129 mm^3; in series [4] (at day 19 after grouping) it was 1761 ± 212 mm^3; in series [4] (at day 22 after grouping), 2216 ± 126 mm^3; in series [4] (at the day of grouping) it was 160 ± 11 mm^3. Moreover, in series [4] (at day 15 after grouping), the “relative tumor growth inhibition rate TGI” value came to 53.1%. Also, the GI50 in series [2] is at most 100 nM. Moreover, the entries for the “Cl—pred” value in series [1] (IV 2 mg/kg single dose) and in series [1] (PO 20 mg/kg single dose) were 0.54 and 0.90, respectively. Moreover, the “Vz—pred” value in series [1] (PO 20 mg/kg single dose) is given as 2.52 L/kg. The AUC(0-t) in series [1] (IV 2 mg/kg single dose) was found to be 3740 ng·h/mL; in series [1] (PO 20 mg/kg single dose) it was 23100 ng·h/mL. Besides, the Cmax is 4510 ng/mL in series [1] (IV 2 mg/kg single dose) and 2370 ng/mL in series [1] (PO 20 mg/kg single dose). The MRT inf turned out to be 1.14 h in series [1] (IV 2 mg/kg single dose) and 5.43 h in series [1] (PO 20 mg/kg single dose). Besides, in series [1] (IV 2 mg/kg single dose), the Vd was determined as 0.79 L/kg. This compound had a F in series [1] of 61.95%.
